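Test compounds were applied to cells in 96-well plates for 48 hours at 5 doses. Here, GI50 denotes the concentration required for 50% inhibition of growth. The concentration for full growth arrest is given as TGI.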
How the values were obtained:
Assay in all cases: growth of human tumour cells (NCI), 48 h
MALME-3M melanoma = test system: MALME-3M melanoma
ACHN renal = test system: ACHN renal
SN12C renal = test system: SN12C renal
OVCAR-3 ovarian = test system: OVCAR-3 ovarian
SF-539 CNS = test system: SF-539 CNS
UACC-257 melanoma = test system: UACC-257 melanoma
SR leukemia = test system: SR leukemia
SNB-19 CNS = test system: SNB-19 CNS
HCT-116 colon = test system: HCT-116 colon
HT29 colon = test system: HT29 colon

SMILES | TGI (MALME-3M melanoma) | TGI (ACHN renal) | TGI (SN12C renal) | TGI (OVCAR-3 ovarian) | TGI (SF-539 CNS) | TGI (UACC-257 melanoma) | TGI (SR leukemia) | TGI (SNB-19 CNS) | TGI (HCT-116 colon) | TGI (HT29 colon) | GI50 (MALME-3M melanoma) | GI50 (ACHN renal) | GI50 (SN12C renal) | GI50 (OVCAR-3 ovarian) | GI50 (SF-539 CNS) | GI50 (UACC-257 melanoma) | GI50 (SR leukemia) | GI50 (SNB-19 CNS) | GI50 (HCT-116 colon) | GI50 (HT29 colon)
COc1cc2ccc3c4cc(OC)c(OC(C)C)cc4c[n+](C)c3c2cc1OC | > 100 µM | > 100 µM | > 100 µM | > 100 µM | > 100 µM | > 100 µM | > 100 µM | > 100 µM | > 100 µM | > 100 µM |  |  |  |  |  |  |  |  |  | 
[N-]=[N+]=NC1C2CC3CC(C2)CC1C3 (stereo not given) | > 100 µM | > 100 µM | > 100 µM | > 100 µM | > 100 µM | > 100 µM | > 100 µM | > 100 µM | > 100 µM | > 100 µM |  |  |  |  |  |  |  |  |  | 
S=C1SCN(C2CCCCCCCCCCC2)CN1C1CCCCCCCCCCC1 | > 100 µM | > 100 µM | > 100 µM | > 100 µM | > 100 µM | > 100 µM | > 100 µM | > 100 µM | > 100 µM | > 100 µM |  |  |  |  |  |  |  |  |  | 
CN=C(N)NC | > 100 µM | > 100 µM | > 100 µM | > 100 µM | > 100 µM | > 100 µM | > 100 µM | > 100 µM | > 100 µM | > 100 µM |  |  |  |  |  |  |  |  |  | 
CNC(=S)N(C1CCCCC1)C1CCCCC1 | > 100 µM | > 100 µM | > 100 µM | > 100 µM | > 100 µM | > 100 µM | > 100 µM | > 100 µM | > 100 µM | > 100 µM |  |  |  |  |  |  |  |  |  | 
CCN(CC)CCC(=O)N1C/C(=C/c2ccccc2)C(=O)/C(=C\c2ccccc2)C1 | 7.36 µM | 7.63 µM | 3.39 µM | 11 µM | 10.8 µM | 4.98 µM | > 100 µM | 6.63 µM | 1.02 µM | 2.24 µM |  |  |  |  |  |  |  |  |  | 
O=C(Nc1ccc(-n2ccc3c(NC(=O)c4ccccc4)nccc32)cc1)c1ccc(N2CCOCC2)c(C(F)(F)F)c1 | 41.1 µM | 22.8 µM | > 100 µM | 9.89 µM | 6.79 µM | 55.5 µM | > 100 µM | > 81 µM | 15.7 µM | 3.71 µM | 5.96 µM | 0.106 µM | 3.93 µM | 0.254 µM | 0.0513 µM | 3.61 µM | < 0.0189 µM | 0.481 µM | 0.035 µM | 0.0476 µM
Fc1ccc2c(c1)cc1ccc3cccc4ccc2c1c34 | > 100 µM | > 100 µM | > 100 µM | > 100 µM | > 100 µM | > 100 µM | > 100 µM | > 100 µM | > 100 µM | > 100 µM |  |  |  |  |  |  |  |  |  | 
COc1ccc(-c2cc(-c3ccc(Cl)cc3)nc(SCCCCCCC(=O)NO)n2)cc1 | 5.5 µM | 2.67 µM | 8.85 µM | 6.85 µM | 6.44 µM | > 50 µM | 3.66 µM | 23.6 µM | 7.16 µM | 16.6 µM | 1.14 µM | 1.11 µM | 1.74 µM | 1.49 µM | 1.63 µM | 1.88 µM | 0.59 µM | 1.67 µM | 1.35 µM | 1.71 µM
NC(N)=NC(N)=Nc1ccc(S(N)(=O)=O)cc1 | > 100 µM | > 100 µM | > 100 µM | > 100 µM | > 100 µM | > 100 µM | > 100 µM | > 100 µM | > 100 µM | > 100 µM |  |  |  |  |  |  |  |  |  | 
CCCc1n(Cc2ccc3ccccc3n2)cc[n+]1Cc1ccc2ccccc2c1 | 2.75 µM | 15.6 µM | 3.51 µM | 1.96 µM | 10.4 µM | 1.72 µM | 3.03 µM | 11.4 µM | 7.05 µM | 2.07 µM | 0.526 µM | 4.08 µM | 0.478 µM | 0.452 µM | 0.861 µM | 0.347 µM | 0.472 µM | 0.551 µM | 1.06 µM | 0.409 µM
CCCCCCC/C=C1\CCC(CN(C)C)C1=O (stereo not given) | 25.3 µM | 31.6 µM | 17.5 µM | 18 µM | 32.7 µM | 29.4 µM | 9.17 µM | 33.8 µM | 22.3 µM | 29.9 µM |  |  |  |  |  |  |  |  |  | 
CC(C)=CCc1c(O)c(C(=O)CC(C)C)c(O)c2c(-c3ccccc3)cc(=O)oc12 | 33.9 µM | > 50 µM | > 50 µM | > 50 µM | 22.5 µM | 30.2 µM | > 50 µM | > 50 µM | 43.3 µM | > 50 µM | 10.8 µM | 5.85 µM | 6.07 µM | 4.33 µM | 5.82 µM | 6.52 µM | 12.8 µM | 10.3 µM | 7.27 µM | 14.1 µM
CCOC(=O)C(=O)C(/C(=N/N(C)C)C(=O)Nc1ccc(C)cc1C)c1nc2ccccc2[nH]c1=O (stereo not given) | > 100 µM | > 100 µM | > 100 µM | > 100 µM | > 100 µM | > 100 µM | > 100 µM | > 100 µM | > 100 µM | > 100 µM |  |  |  |  |  |  |  |  |  | 
CC(=O)OC1(C#N)CC2OC1C1N=NN(C(=O)OC(C)(C)C)C21 (stereo not given) | > 68.2 µM | > 100 µM | > 100 µM | > 80.6 µM | > 100 µM | > 31.6 µM | 57.8 µM | > 100 µM | 15.5 µM | > 100 µM |  |  |  |  |  |  |  |  |  | 
N#Cc1ccc(NC(=O)Nc2nc3ccc(OC(F)(F)F)cc3s2)cc1 | 5.92 µM | 7.05 µM | 8.64 µM | 14.3 µM | 10.1 µM | 6.4 µM | 5.77 µM | 13.9 µM | 2.87 µM | 10 µM | 0.843 µM | 0.732 µM | 1.58 µM | 0.577 µM | 2.9 µM | 1.35 µM | 0.736 µM | 1.5 µM | 0.552 µM | 2.07 µM

Source: PubChem BioAssay (NCI)
